This is an account of results in patent publication US20230190660A1, “ENCAPSULATED PHARMACEUTICAL COMPOSITIONS, RELATED METHODS OF MAKING, AND RELATED METHODS OF TREATMENT” (PATH, priority 2021, published 2023).

Data set [1] has as its system glucose levels. Kind of data set: Pilot study: glucose levels in rats after oral ion-pair formulations or subQ insulin. It is filed as in vivo. The conditions noted are these: subQ, 5 IU/kg. The text has this: (§1) The present Example describes a) selection of the dosage presentation for the lead ion-pair and the dose (see TABLE 8, FIGS. 4 and 14A-14D) and b) validation of the lead ion-pair formulation in their ability to lower glucose levels upon oral administration of the formulations (see FIGS. 15A-15D). In part a) of the present Example, we compared the capsule and FDT presentation formats for both ion-pair formulations. We also included β-CD-encapsulated ion-pair complex to see whether the encapsulation of ion-pair within β-CD offers further improvement in absorption of insulin. Liquid insulin given subcutaneously (subQ) was used a comparator in both studies.

Data set [2] can be described thus: Static gastrointestinal use testing (GUT) model, gastric fluid. As to conditions: 30 minutes at 37° C.
Text: The purpose of this evaluation was to test whether the bile-insulin ion-pair encapsulated within the resistant starch polymer is protected from pH and enzymatic degradation encountered in the gastrointestinal compartments. Since the in vivo feasibility of insulin FDTs is proposed in a diabetic rodent model, we scaled down the size of the FDTs based on limited size of the oral cavity in rats. We also included commercially available gelatin oral capsules fit for oral delivery to rats (FIGS. 12A and 12B). Biorelevant dissolution media simulating the pH and enzymatic conditions in the different sections of gastrointestinal tract, such as fasted state simulated gastric fluid (FASSFG), and intestinal fluid in the duodenum and jejunum (TABLE 7) were generated following the composition recipe reported by Jantratid et al. (2009).
Samples were incubated in the different fluid media maintained at 37° C. and at the 30-minute time point, removed and tested for insulin content. Unformulated insulin was used as a control for comparative evaluation (FIGS. 13A and 13B).
Data set [3] concerns glucose levels. The data set can be described thus: Confirmation study: glucose levels in rats, additional doses. It is filed as in vivo. The conditions noted are these: subQ, 5 IU/kg.
Text: as §1

For the next data set, the system named is blood glucose levels. The data set can be described thus: Glucose lowering in STZ diabetic rodent model. It is filed as in vivo, Sprague Dawley rodents. The conditions noted are these: SC. As to the method: Briefly, the male Sprague Dawley rodents (200-250 grams) are fasted 4 hours before given 65 mg/kg intraperitoneal (IP) streptozotocin (STZ) to induce diabetes and randomized into treatment groups based on the post-STZ (˜1 week) baseline glucose levels (see TABLE 10). Only rodents with hyperglycemia (glycose levels […]) are used in the study. Rodents are housed on a 12-hour light/dark cycle with no more than 2 rats per cage depending on size and acclimatized for not less than 5 days. Blood glucose levels are measured using calibrated Glucocard Vital glycometers (Arkray, Minneapolis, Minn.) and levels are reported as mg/dL. For each timepoint, blood (<5 uL) is acquired from a tail snip and directly applied to a glucose test strip. Data for each quantitative timepoint is presented as the average+/−SEM (standard error of the mean). Differences between vehicle control and each treatment groups are determined by Student's t-test using GraphPad Prism (current version) with an alpha threshold of 0.05.
Insulin and blood glucose levels were measured before administration, at 30 minutes, 60 minutes, 90 minutes, 2 hours, 4 hours, 8 hours, and 24 hours after dosing.

In the data set with glucose levels [1] (late time point (T=8 hours), similar to T=0), insulin came in with a glucose levels of 600 mg/dL. In addition, the glucose level with glucose levels [1] (within the first hour (from 600 mg/dL)) was 100 mg/dL; in the data set with glucose levels [3] (T=1 hour (from 600 mg/dL)), around 100 mg/dL. Further, in the data set with glucose levels [1] (within the first hour of administration), the “lowering of glucose levels” value was “about 80%”. Besides, the “degradation in the presence of gastric fluid” value in data set [2] is “degraded almost completely”. In the data set with glucose levels [3] (T=1 hour), the “drop in glucose levels” value was around 80%. In addition, the “time after administration within which glucose levels rise” value in the data set on blood glucose levels is at most 4 h. The glucose lowering effect in the data set with blood glucose levels (compared to diabetic rodent levels) is reported as above 60%.
